Results taken from patent US20070059264A1, “Reduction of hair growth” (priority 2005, published 2007).

Test system: axillary (armpit) hair growth
Assay: Axillary hair growth reduction in human subjects (hair length by image analysis)
Type: in vivo
Settings: for Hair Length (μm): Example 1 including 3% DFMO once a day to armpit, six human subjects; for % Reduction (hair length): Example 1 including 3% DFMO vs Right Guard roll-on vehicle
Procedure: Example 1, including 3% DFMO, was tested in six human subjects to determine the effectiveness of the composition for reducing hair growth. The composition was applied once a day to one armpit in a subject; Right Guard® roll-on product was applied once daily to the other armpit. The hair length measurements were made at select time intervals using a semi automated image analysis system. For these measurements, the subjects shaved both armpits and then digital images of the treatment areas (DFMO and Vehicle) were taken at 24, 48, and 72 hr later. The number of hairs measured per site ranged from 58 to 87.
The results after six weeks and 16 weeks are shown below.

[1] = after 6 weeks, 24 Hrs after shaving
[2] = after 6 weeks, 48 Hrs after shaving
[3] = after 6 weeks, 72 Hrs after shaving
[4] = after 16 weeks, 24 Hrs after shaving
[5] = after 16 weeks, 48 Hrs after shaving
[6] = after 16 weeks, 72 Hrs after shaving

NCCCC(N)(C(=O)O)C(F)F (stereo not drawn) [DFMO, α-Difluoromethylomithine]
Hair Length (μm) [1]: 274 ± 15 μm | % Reduction (hair length) [1]: 48 ± 3% | Hair Length (μm) [2]: 509 ± 26 μm | % Reduction (hair length) [2]: 49 ± 3% | Hair Length (μm) [3]: 867 ± 34 μm | % Reduction (hair length) [3]: 46 ± 2% | Hair Length (μm) [4]: 170 ± 16 μm | % Reduction (hair length) [4]: 66 ± 3% | Hair Length (μm) [5]: 273 ± 23 μm | % Reduction (hair length) [5]: 73 ± 3% | Hair Length (μm) [6]: 326 ± 24 μm | % Reduction (hair length) [6]: 75 ± 2%
